Experimental data reported in patent publication US8361802B2, “Fluorescent ozone sensor” (University of Pittsburgh—Of the Commonwealth System of …, priority 2009, dated 2013).

Assays:
[1] = Ozone detection in indoor air on adsorbent paper strips; conditions: 500 nmol on adsorbent paper, photocopy room, eight hours
Description: One embodiment of the present invention can be a badge that contains compound 4 that may be worn by patients so their total ozone exposure can be continuously measured through the day. A proof-of-principle experiment was conducted with compound 4 and compound 1 as a comparative. A solution of compound 4 (500 nmol) in dimethylsulfoxide (DMSO) was absorbed on a piece of adsorbent paper and allowed to dry. The paper strips were stored in an office room that had two photocopiers and two laser printers. After eight hours, the paper strips were removed and placed in a vial that contained oH 7 buffer to elute the dyes. […] The deviation in these values is presumably because of photobleaching and the lack of specificity of compound 1 towards various ROS, including singlet oxygen.
Ozone detection in indoor air. FIG. 10 are photographic illustrations of results of Ozone detection tests in indoor air using the present invention. The top photograph is a Kimwipe® before placing into photocopy room for 8 hours. The bottom photographs are a Kimwipe® in buffer for absorbance and fluorescence measurement, wherein the left photograph is an indigo carmine taken in room light), and the right photograph is compound 4 taken under long-range UV lamp. One adsorbent paper (Kimwipe®) was cut into two 11×9 cm pieces. Solution A (50 μL, 500 nmol of compound 4) was added to one portion of the Kimwipe® and allowed to dry (FIG. 10, top right). Solution B (50 μL, 500 nmol of indigo carmine) was added to the other portion of the Kimwipe® and allowed to dry (FIG. 10, top left). After overnight drying in a laboratory drawer, the paper strips were moved to a poorly ventilated photocopy room (2 photocopiers and 2 laser printers) for 8 hours. The controls remained in the laboratory drawer. After 8 hours, the samples were placed into a scintillation vial, and the dyes were eluted with pH 7 buffer (6.0 mL) (˜5 min) before fluorescence and absorbance measurement. […] FIGS. 3C-D error bars were determined from the calculated mean and standard deviation (Prism 5.0a, GraphPad Software, Inc.).

[2] = Concentration dependence / sensitivity of fluorescent ozone detection; conditions: MeOH/pH 7 buffer (5:95), samples diluted 10-fold
Description: FIG. 2B is a correlation between fluorescent intensity and ozone in 5:95 MeOH/pH 7 buffer after ten-fold dilution of original samples. The linear correlation is y=0.000900x+0.0467; R^2=0.987; average standard deviation=0.00844. The intensity continued to be linear up to 12.5 μM.
The present invention the sensitivity of our fluorescent method for ozone detection was examined. The fluorescent intensity correlated to the concentration of ozone in the 50 nM-12.5 μM (2.4-600 ppbv) range with S/B of 2.6-310 after 10-fold dilution of the original samples (0-500 nM shown in FIG. 2B). The level of detection is 59 nM (2.9 ppbv; S/B=3) and the level of quantitation is 340 nM (16 ppbv; S/B=10).
Concentration dependence. […] Error bars were determined from the calculated mean and standard deviation (Prism 5.0a, GraphPad Software, Inc.).

[3] = test system: Human bronchial epithelial cells (BEAS-2B); assay: Live-cell imaging of human bronchial epithelial cells; format: cell-based; conditions: human bronchial epithelial cells
Description: Human bronchial epithelial cells (BEAS-2B) (American Type Culture Collectin) were grown in LHC-9 medium (Invitrogen) on glass-bottomed Petri dishes (MatTek) precoated with 0.01 mg ml^−1 of human fibronectin (Invitrogen), 0.029 mg ml^−1 Vitrogen 100 (Cohesion) and 0.01 mg ml^−1 bovine serum albumin (Invitrogen) in LHC-9 medium. Immediately prior to imaging, cells were rinsed with Hank's balanced salt solution, which contained calcium and magnesium, and placed inside a temperature-controlled, airtight environmental chamber and maintained at 37° C. and 5% CO2. Images were obtained using a Nikon TE2000E-PFS (Perfect focus system) microscope equipped with a […] oil-immersion objective (Nikon, CFI PlanFluor, NA 1.3) and a fluorescien isothiocyanate longpass filter set (Chroma), a Q-Imaging SRV CCD camera (Q-imaging) and MetaMorph software (Molecular Devices). The motorized XYZ stage used was made by ASA (Eugege). Baseline images were collected before the addition of compound 8 and time-lapsed images obtained at 30 second intervals after the addition of compound 8 (250 nM). Once stage baseline had been achieved, multiple washes were carried out and the media replaced. The cells were then exposed to ozone (˜2.1 ppm) and monitored every 30 seconds for 15 minutes. Ozone was generated from medical grade oxygen (Valley Gas) via a model V1-0 ultraviolet ozonator (OREC) and analyzed with a Dasibi (Glendale) direct-reading instrument. Ozone concentrations were maintained by adjusting both the intensity of the ultraviolet light and the flow rate of oxygen. For each experiment, images were collected from six stages, with a minimum of five cells per position (a minimum of 30 cells per […]).
In another embodiment of the invention, human bronchial epitelial cells were incubated with compound 4 to determine ozone's role in cell biology. […] Based on studies why compound 4 and structurally related compounds are not fluorescent, it is believed that the hydroxymethyl group 4 may have been oxidized to give a more electron-withdrawing group, possible a carboxyl or aldehyde group, and so emit a strong fluorescence signal. To circumvent such an oxidation event, compound 8 was prepared specific for ozone. […] Once a steady baseline signal had been established and maintained for five minutes, ozone gas was generated within the airtight environmental chamber that housed the cell-culture dishes, and fluorescent signals were monitored using live-cell microscopy for approximately 15 minutes.
FIGS. 16A-H are photographs of live-cell imaging of human bronchial epithelial cells in the presence of ozone using compound 8. The left-hand panels (FIGS. A-E) are pseudocolour images that indicate the changes in emission intensity over time, and the right-hand panels show differential interference contrast images of the bronchial epithelial cells. FIG. 16A is before the addition of compound 8 (0 seconds). FIG. 16B illustrates the cell at 107 seconds that is a steady state intensity reached with compound 8 at 250 nM. FIG. 16C illustrates the cell at 326 seconds when ozone flow is started. FIG. 16D illustrates the cell at 536 seconds with the emission intensity increasing. FIG. 16E illustrates the cell at 675 seconds when emission maximum is reached. FIG. 16F illustrates the cell at 820 seconds when the cell starts to die. FIG. 16G illustrates the cell at 969 seconds where the cell emission continues to fall. FIG. 16H illustrates the cell at 1148 seconds when the ozone flow is stopped.

[4] = Ozone detection in ambient (outdoor) air; conditions: 8 hours
Description: In all cases, sensor 4=12.5 μM and all ozone assays were performed in 5:95 MeOH/pH 7 buffer. Solutions of senor 4 in 5:95 MeOH/pH 7 buffer were prepared and exposed to ambient air in various locations throughout a city on a hot, sunny day (˜32° C.) for 8 hours. A negative control was prepared in the same manner but incubated at 37° C. in a closed vial for 8 hours. […] Solutions of senor 4 ([4]final =12.5 μM) in 5:95 MeOH/pH 7 buffer ([PO4^3−]=5 mM) solution (4.0 mL) were prepared, and the samples were placed in high traffic outdoor areas for 8 hours. The samples were not exposed directly to sunlight. A negative control was prepared in the same manner but incubated at 37° C. in a closed vial for 8 hours. Following the 8 hour incubation period, the fluorescence of each sample was measured. Ozone detection in ambient air. Solution A (5.0 μL, [compound 4]final=12.5 μM) was added to a mixture of MeOH/pH 7 buffer ([PO4^3−]=5 mM) (5:95) (4.0 mL), and 4 samples were placed in 4 outdoor areas throughout University of Pittsburgh campus for 8 hours (high temperature=32.2° C.; AQI=43; PM2.5=64) on Jun. […] The samples were not exposed to direct sunlight. […] For each location, triplicate replicas were performed.

- cell permeability [3]: cell permeable
Compound: C=CCCOc1cc2oc3cc(=O)c(Cl)cc-3c(-c3ccccc3CO)c2cc1Cl [compound 4]
- compound 7 generated on paper strip [1]: 0.95 nmol
- background signal (fluorescence intensity, λem=523 nm) [2]: 0.0377×10^5
- fluorescence inside the cells in the absence of external ozone ([3]; no external ozone): converted to a fluorescent compound inside the cells
- ozone level correlating to S/B, based on linear regression [4]: 13-22 ppb
- S/B ([4]; 5:95 MeOH/pH 7 buffer): 10-17
